Patent US20080280824A1, “COMPOSITIONS AND METHODS FOR TREATMENT OF CANCER OR NEURODEGENERATIVE DISEASE WITH PEPTIDE BASED MICROTUBULE STABILIZERS OR INHIBITORS” (University of Washington, priority 2007, published 2008)

B1: αAβ8: human αB crystallin mutant, β8 sequence 131LTITSSLS138 replaced with homologous β8 sequence of human αA crystallin (protein)
chain: MDIAIHHPWIRRPFFPFHSPSRLFDQFFGEHLLESDLFPTSTSLSPFYLRPPSFLRAPSWFDTGLSEMRLEKDRFSVNLDVKHFSPEELKVKVLGDVIEVHGKHEERQDEHGFISREFHRKYRIPADVDPSALSCSLSSDGVLTVNGPRKQVSGPERTIPITREEKPAVTAAPKK

Columns and labels:
βH crystallin = assay: In vitro chaperone assay, thermal aggregation of βH crystallin; assay type: biochemical
alcohol dehydrogenase = assay: In vitro chaperone assay, thermal aggregation of alcohol dehydrogenase; assay type: biochemical
citrate synthase = assay: In vitro chaperone assay, thermal aggregation of citrate synthase; assay type: biochemical
Bovine brain tubulin [1] = target: T1, Bovine brain tubulin (Bos taurus, UniProt P81947+Q6B856); assay: Microtubule assembly assay (DAPI fluorescence, Microtubule Stabilization/Destabilization Assay kit); assay type: biochemical
T1 construct: Bovine brain tubulin was dissolved to 200 μM; purchased Cytoskeleton; Denver, Colo; host or cells: bovine brain
Experimental: Microtubule assembly assays. The effect of selected αB crystallin peptides on the in vitro assembly of tubulin into microtubules was evaluated using the Microtubule Stabilization/Destabilization Assay kit (Cytoskeleton; Denver, Colo.) as described previously. Bonne et al., J Biol Chem 260:2819-25, 1985. Bovine brain tubulin was dissolved to 200 μM in 80 mM PIPES, 2 mM MgCl2, 0.5 mM EGTA, 10 μM DAPI, 1 mM GTP pH 6.9. 8.5 μl of the tubulin was mixed with 40 μl of 80 mM PIPES, 2 mM MgCl2, 0.5 mM EGTA, 7.4 μM DAPI, 16% Glycerol, 1.1 mM GTP pH 6.9 and 4.3 μl of 2 mM peptide in 2.5% DMSO, 2 mM Paclitaxel (polymerization promoter) in 100% DMSO, 15 mM CaCl2 (polymerization inhibitor) in water, or 2.5% DMSO only. Microtubule assembly was monitored by measuring the fluorescence of DAPI, a molecule whose emission fluorescence at λ=460 is enhanced 8-fold when it is incorporated into assembled microtubules. Bonne et al., J Biol Chem 260:2819-25, 1985. Fluorescence of samples were continuously read on a Perkin Elmer Victor^3 V fluorescence plate reader (Excitation λ=355 nm, Emission λ=460 nm) at 37° C. for 45 minutes.
The effect of wt and three mutant αB crystallins, Δ41-58, αAβ8, and Δ155-165 on the in vitro assembly of tubulin into microtubules was evaluated using the Microtubule Stabilization/Destabilization Assay kit described above (Cytoskeleton; Denver, Colo.). Bovine brain tubulin was dissolved to 200 μM in 80 mM PIPES, 2 mM MgCl2, 0.5 mM EGTA, 10 μM DAPI, 1 mM GTP pH 6.9. 8.5 μl of the tubulin was mixed with 40 μl of 80 mM PIPES, 2 mM MgCl2, 0.5 mM EGTA, 7.4 μM DAPI, 16% Glycerol, 1.1 mM GTP pH 6.9 and 4.3 μl of 80 μM protein in 20 mM Tris-Cl, pH8.0 or Tris-Cl buffer only. Fluorescence of samples were continuously read on a Perkin Elmer Victor^3 V fluorescence plate reader (Excitation λ=355 nm, Emission λ=460 nm) at 37° C. for 45 minutes.

pre-formed microtubules = assay: Microtubule disassembly assay (DAPI fluorescence); assay type: biochemical, Bovine
Experimental: Microtubule disassembly assays. The effect of αB crystallin peptides and mutants on the in vitro disassembly of microtubules into soluble tubulin was evaluated using the Microtubule Stabilization/Destabilization Assay kit described above (Cytoskeleton; Denver, Colo.) as described previously^36. 34 μM pre-formed microtubules were incubated with the αB crystallin peptides (170 μM) or wt and mutant αB crystallins (6.8 μM and 34 μM) at 23° C. for 20 minutes. Incubation of microtubules at 23° C. results in the spontaneous disassembly of microtubules. The decrease in DAPI fluorescence at λ=460 nm was measured continuously for 20 minutes by exciting the samples at λ=355 nm using a Perkin Elmer Victor^3 V fluorescence plate reader.

Bovine brain tubulin [2] = assay: Tubulin thermal aggregation assay (absorbance at 340 nm); assay type: biochemical
Experimental: Tubulin aggregation assays. The effect of αB crystallin peptides and mutants on the thermal aggregation of tubulin was evaluated using ultra-violet spectroscopy. Bovine brain tubulin was dissolved to 200 μM in 80 mM PIPES, 2 mM MgCl2, 0.5 mM EGTA, pH 6.9. 4.25 μl of 0.08, 0.4, or 2 mM test peptide or protein was diluted into 40 μl of 80 mM PIPES, 2 mM MgCl2, 0.5 mM EGTA, pH 6.9. 8.5 μl of the 200 μM tubulin was added to each sample. Samples were heated at 52° C. and the absorbance at λ=340 nm was measured continuously for 60 minutes using a Pharmacia Biotech Ultrospec 3000. GTP and glycerol were not present in the samples because they induce the assembly of microtubules.

T1 sequence (P81947 whole entry): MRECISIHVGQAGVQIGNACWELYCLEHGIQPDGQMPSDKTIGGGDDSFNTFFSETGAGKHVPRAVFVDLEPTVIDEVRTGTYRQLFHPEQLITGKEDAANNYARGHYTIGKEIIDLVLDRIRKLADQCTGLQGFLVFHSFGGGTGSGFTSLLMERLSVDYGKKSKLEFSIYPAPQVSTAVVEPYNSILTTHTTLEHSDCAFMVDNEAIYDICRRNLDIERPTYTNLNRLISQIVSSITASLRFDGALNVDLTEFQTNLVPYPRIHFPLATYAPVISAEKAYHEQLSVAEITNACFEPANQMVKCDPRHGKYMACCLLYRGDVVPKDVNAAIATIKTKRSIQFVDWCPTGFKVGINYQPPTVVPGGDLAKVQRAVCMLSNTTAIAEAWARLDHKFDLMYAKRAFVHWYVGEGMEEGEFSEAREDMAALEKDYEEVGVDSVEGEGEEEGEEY
T1 sequence (Q6B856 whole entry): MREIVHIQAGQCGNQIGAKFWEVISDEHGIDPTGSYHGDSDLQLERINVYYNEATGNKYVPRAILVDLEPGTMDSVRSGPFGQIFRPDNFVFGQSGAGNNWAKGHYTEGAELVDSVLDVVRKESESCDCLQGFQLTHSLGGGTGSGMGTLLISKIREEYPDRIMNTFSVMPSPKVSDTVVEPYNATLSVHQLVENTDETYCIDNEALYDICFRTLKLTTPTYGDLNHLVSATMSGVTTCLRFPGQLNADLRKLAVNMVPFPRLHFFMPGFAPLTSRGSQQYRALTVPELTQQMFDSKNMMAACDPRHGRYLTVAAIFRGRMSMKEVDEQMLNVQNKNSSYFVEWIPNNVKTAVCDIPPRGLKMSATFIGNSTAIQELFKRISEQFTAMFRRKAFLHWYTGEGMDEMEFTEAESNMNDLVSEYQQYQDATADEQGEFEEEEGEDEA

Row | Molecule | effect on thermal aggregation of βH crystallin (βH crystallin) | effect on thermal aggregation of alcohol dehydrogenase (alcohol dehydrogenase) | effect on thermal aggregation of citrate synthase (citrate synthase) | microtubule assembly relative to wt αB crystallin (Bovine brain tubulin [1]; mutant αB crystallin, FIG. 4) | effect on microtubule assembly, vs absence of αB crystallin (Bovine brain tubulin [1]; wt or mutant αB crystallin protein, tubulin alone normalized to 1.0) | microtubule disassembly relative to wt αB crystallin (pre-formed microtubules; mutant αB crystallin, FIG. 4) | effect on microtubule disassembly (words), vs absence of αB crystallin (pre-formed microtubules; wt or mutant αB crystallin (6.8 μM and 34 μM), 34 μM microtubules, 23° C., 20 minutes) | tubulin aggregation relative to wt αB crystallin (Bovine brain tubulin [2]; mutant αB crystallin, FIG. 4) | effect on tubulin aggregation, vs absence of αB crystallin (Bovine brain tubulin [2]; wt or mutant αB crystallin protein, 52° C., 60 minutes)
1 | LTITSSLSDGV | inhibited | inhibited | inhibited |  |  |  |  |  | 
2 | RTIPITRE | inhibited | inhibited | inhibited |  |  |  |  |  | 
3 | B1 |  |  |  | increased | increased | decreased | completely inhibited | unchanged | decreased
